Measured values as given in ChEMBL document CHEMBL1201862, “PubChem BioAssay data set” (2004).
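Dose response: 5 concentrations. Exposure: 48 h. Format: 96-well plates. Endpoint: linear interpolation; highest concentration if not reached. GI50: concentration for 50% inhibition of growth.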 Calls of active or inactive are those of the source. Rule as the data show it: active = GI50 up to about 1.1 µM and inactive = higher.

Legend:
Test in all cases: NCI anticancer screen, dose series, 48 h
CAKI-1 = test system: CAKI-1
UACC-257 = test system: UACC-257
BT-549 = test system: BT-549
A549 = test system: A549
NCI/ADR-RES = test system: NCI/ADR-RES
SNB-19 = test system: SNB-19
DU-145 = test system: DU-145
SK-MEL-2 = test system: SK-MEL-2
HOP-62 = test system: HOP-62
SF-268 = test system: SF-268
OVCAR-4 = test system: OVCAR-4
NCI-H226 = test system: NCI-H226
HL-60 = test system: HL-60
786-0 = test system: 786-0
M14 = test system: M14
PC-3 = test system: PC-3
LOX IMVI = test system: LOX IMVI
TK-10 = test system: TK-10
OVCAR-3 = test system: OVCAR-3
SNB-75 = test system: SNB-75

Measured: GI50

CN(CC(=O)O)Cc1c(O)c(Cl)cc(Cl)c1Cl
inactive: CAKI-1 61.8 µM | UACC-257 19.8 µM | BT-549 75.5 µM | A549 53.7 µM | NCI/ADR-RES 26.8 µM | SNB-19 48.4 µM | DU-145 34.4 µM | SK-MEL-2 27.2 µM | HOP-62 29 µM | SF-268 21.4 µM | OVCAR-4 33.6 µM | NCI-H226 22.8 µM | HL-60 13.9 µM | 786-0 15.8 µM | M14 22.2 µM | PC-3 41.4 µM | LOX IMVI 14 µM | TK-10 37.8 µM | OVCAR-3 4.07 µM | SNB-75 92.5 µM

O=[N+]([O-])c1cc2ccc(N(CCO)CCO)nc2nc1N(CCO)CCO
inactive: CAKI-1 > 100 µM | UACC-257 > 100 µM | BT-549 > 100 µM | A549 > 100 µM | NCI/ADR-RES > 100 µM | SNB-19 > 100 µM | DU-145 > 100 µM | SK-MEL-2 > 100 µM | HOP-62 > 100 µM | SF-268 > 100 µM | OVCAR-4 > 100 µM | NCI-H226 > 100 µM | HL-60 > 100 µM | 786-0 > 100 µM | M14 > 100 µM | PC-3 > 100 µM | LOX IMVI > 100 µM | TK-10 > 100 µM | OVCAR-3 > 100 µM | SNB-75 > 100 µM

Cc1[nH]nc(C(=O)N/N=C/c2cccs2)c1/N=N\N(C)C
inactive: CAKI-1 5.78 µM | UACC-257 26.7 µM | BT-549 11.9 µM | A549 10.5 µM | NCI/ADR-RES 21.1 µM | SNB-19 8.38 µM | DU-145 9.53 µM | SK-MEL-2 35.2 µM | HOP-62 17 µM | SF-268 9.4 µM | OVCAR-4 10.5 µM | NCI-H226 23.1 µM | HL-60 1.99 µM | 786-0 13.6 µM | M14 24.7 µM | PC-3 20.1 µM | LOX IMVI 4.3 µM | TK-10 23.5 µM | OVCAR-3 22.4 µM | SNB-75 2.89 µM

CCOC(=O)CN1CC(C2=C(O)CN(CC(=O)OCC)C2=O)=CC1=O
inactive: CAKI-1 > 100 µM | UACC-257 > 100 µM | BT-549 > 100 µM | A549 > 100 µM | NCI/ADR-RES > 100 µM | SNB-19 > 100 µM | DU-145 > 100 µM | SK-MEL-2 > 100 µM | HOP-62 > 100 µM | SF-268 > 100 µM | OVCAR-4 > 100 µM | NCI-H226 > 100 µM | HL-60 > 100 µM | 786-0 > 100 µM | M14 > 100 µM | PC-3 > 100 µM | LOX IMVI > 100 µM | TK-10 > 100 µM | OVCAR-3 > 100 µM | SNB-75 > 100 µM

Cc1ccc(-n2cnc(C(=N)C#N)c2N)cc1
inactive: CAKI-1 > 100 µM | UACC-257 > 100 µM | BT-549 > 100 µM | A549 > 100 µM | NCI/ADR-RES > 100 µM | SNB-19 > 100 µM | DU-145 > 100 µM | SK-MEL-2 > 100 µM | HOP-62 > 100 µM | SF-268 > 100 µM | OVCAR-4 > 100 µM | NCI-H226 > 100 µM | HL-60 > 100 µM | 786-0 > 100 µM | M14 > 100 µM | PC-3 > 100 µM | LOX IMVI > 100 µM | TK-10 > 100 µM | OVCAR-3 > 100 µM | SNB-75 > 100 µM

O=C(OCCN=c1c2ccccc2ccc2ccccc12)c1ccccc1
inactive: CAKI-1 83.4 µM | UACC-257 > 100 µM | BT-549 42.2 µM | A549 86.5 µM | NCI/ADR-RES 96.4 µM | SNB-19 40.5 µM | DU-145 > 100 µM | SK-MEL-2 > 100 µM | HOP-62 64.6 µM | SF-268 > 100 µM | OVCAR-4 42.3 µM | NCI-H226 > 100 µM | HL-60 27.3 µM | 786-0 87.7 µM | M14 > 100 µM | PC-3 67.3 µM | LOX IMVI 72.1 µM | TK-10 > 100 µM | OVCAR-3 > 100 µM | SNB-75 > 100 µM

C=C1C(=O)O[C@@H]2C[C@@]3(C)CCCC(=C)[C@@H]3C[C@H]12.C=C1C(=O)O[C@@H]2C[C@@]3(C)CCC[C@H](C)C3=C[C@H]12
inactive: CAKI-1 1.69 µM | UACC-257 1.65 µM | BT-549 1.45 µM | A549 5.12 µM | NCI/ADR-RES 1.96 µM | SNB-19 9.33 µM | DU-145 2.77 µM | SK-MEL-2 2.09 µM | HOP-62 2.3 µM | SF-268 2.55 µM | OVCAR-4 2.7 µM | NCI-H226 5.3 µM | HL-60 1.99 µM | 786-0 1.43 µM | M14 1.42 µM | PC-3 3.2 µM | LOX IMVI 2.9 µM | TK-10 2.88 µM | OVCAR-3 1.61 µM | SNB-75 1.91 µM

CC1(C)CN=C(Nc2cccc(C(F)(F)F)c2)S1
inactive: CAKI-1 > 100 µM | UACC-257 > 100 µM | BT-549 > 100 µM | A549 > 100 µM | NCI/ADR-RES > 100 µM | SNB-19 > 100 µM | DU-145 > 100 µM | SK-MEL-2 > 100 µM | HOP-62 > 100 µM | SF-268 > 100 µM | OVCAR-4 > 100 µM | NCI-H226 > 100 µM | HL-60 59.3 µM | 786-0 > 100 µM | M14 > 100 µM | PC-3 > 100 µM | LOX IMVI > 100 µM | TK-10 > 100 µM | OVCAR-3 > 100 µM | SNB-75 > 100 µM

O=C(NCCN1C(=O)CN=C(c2ccc(Cl)cc2)c2cc(Cl)ccc21)OCc1ccccc1
inactive: CAKI-1 14.2 µM | UACC-257 15.3 µM | BT-549 15.6 µM | A549 10.6 µM | NCI/ADR-RES 11.9 µM | SNB-19 18.9 µM | DU-145 18.2 µM | SK-MEL-2 18.1 µM | HOP-62 19.8 µM | SF-268 12.4 µM | OVCAR-4 8.71 µM | NCI-H226 15.6 µM | HL-60 10.1 µM | 786-0 14.7 µM | M14 16.4 µM | PC-3 11.5 µM | LOX IMVI 17.4 µM | TK-10 16.7 µM | OVCAR-3 12.6 µM | SNB-75 18.1 µM

Nc1nc(OCC2CCCCC2)c2nc[nH]c2n1
inactive: CAKI-1 7.24 µM | UACC-257 17.3 µM | BT-549 13.9 µM | A549 15.5 µM | NCI/ADR-RES 28.6 µM | SNB-19 25.2 µM | DU-145 9.77 µM | SK-MEL-2 4.5 µM | HOP-62 13.4 µM | SF-268 11.2 µM | OVCAR-4 13.2 µM | NCI-H226 9.59 µM | HL-60 19.1 µM | 786-0 17 µM | M14 8.73 µM | PC-3 10.8 µM | LOX IMVI 8.75 µM | TK-10 7.35 µM | OVCAR-3 9.25 µM | SNB-75 16.1 µM
